Results reported in PubChem BioAssay AID2060604 (Molecular Pharmacology Branch, DTP, NCI, 2025).
pIC50: −log10 of the molar value.

Tested on: 379773-124-R-J2-PDC complex spheroids, viability % test/control
Test: Anticancer human tumor 379773-124-R-J2-PDC patient-derived endometrial carcinoma cell line growth inhibition [CLK]
Details: for pIC50: curve of first compound; for viability, T/C: stronger effect = lower value
Excerpt: A high-throughput screen of multi-cell type tumor spheroids was designed to identify active combinations of […] and targeted small molecules. Complex spheroids include a stromal component modeled by human endothelial cells (HUVEC) and fibroblasts modeled by human mesenchymal stem cells (MSCs). The concentration ranges selected for each drug and investigational agent were based upon clinically achievable concentrations if the clinical Cmax of the agent was known.
Compounds. The drugs and investigational agents: cirtuvivint (SM08502; NSC835563), CC-671 (NSC850746), vemurafenib (NSC761431), tapotoclax (NSC804041), sotorasib (NSC818433), adagrasib (NSC831453), MRTX-1133 (NSC836407), BAY2416964 (NSC825713), copanlisib (NSC816437), inavolisib (NSC800729), abemaciclib (NSC768073), osimertinib (NSC779217), entinostat (NSC756642), eltanexor (KPT-8602, NSC794443), venetoclax (NSC766270), ceralasertib (NSC777638), bortezomib (NSC756655), olaparib (NSC753686), talazoparib (NSC767125), alisertib (NSC759677), peposertib (NSC802822), gemcitabine (NSC613327), 5-fluorouracil (NSC19893), SN-38 (NSC673596), oxaliplatin (NSC266046), paclitaxel (NSC125973), and doxorubicin (NSC123127), were obtained from the National Cancer Institute (NCI) Developmental Therapeutics Program Chemical Repository. The FDA-approved anticancer drug set is available from the Developmental Therapeutics Program at https://dtp.cancer.gov/organization/dscb/obtaining/available plates.htm. […] The stock solutions were prepared in dimethyl sulfoxide (DMSO, Sigma-Aldrich, St. Louis, MO, cat. D2650), except for the platinum complexes which were prepared in saline (Quality Biological, Gaithersburg, MD, cat. 114-055-101), at 800-fold the tested concentration and stored at -70 degrees C prior to their use. All drugs and investigational agents were tested over a range starting from a high concentration at or near the clinical Cmax and decreasing in half-log increments. If the clinical Cmax for an agent had not been determined, the highest concentration tested was 10 microM.
Cell Culture. All cells were maintained in an incubator at 37 degrees C and 5% CO2 with 95% humidity. The PDC lines were cultured according to standard operating procedures established by the NCI PDMR. Briefly, all PDCs were thawed and cultured in Matrigel-coated flasks prepared with a working solution of 1X Ham's F-12 nutrient mix, without supplementation (Invitrogen, Waltham, MA, cat. 11765054), 100 U/mL penicillin-streptomycin (Invitrogen, cat. 15140122), and 2.5% Matrigel (Corning Inc., Corning, NY, cat. 354248) for the first three passages. The 947758-054-R-J2-PDC line was cultured in 6B/Colon 1A media, which includes advanced DMEM/F-12 (Thermo Fisher Scientific, cat. 12634028), 10 mM HEPES (Thermo Fisher Scientific, cat. 15630080), 1X GlutaMAX supplement (Thermo Fisher Scientific, cat. 35050061), 0.1 mg/mL primocin (InvivoGen, cat. ant-pm-2), 10% defined fetal bovine serum, heat inactivated (HyClone Laboratories Inc., cat. SH30070.03HI), 1.25 mM N-Acetyl-L-cysteine (Sigma-Aldrich, cat. A9165), 10 mM nicotinamide (Sigma-Aldrich, cat. N0636), 1X B-27 supplement (Thermo Fisher Scientific, cat. 17504044), 1X N-2 supplement (Thermo Fisher Scientific, cat. 17502048), and 10 microM Y-27632 dihydrochloride (Tocris Bioscience, cat. 1254). The 876862-298-R-J1-PDC was cultured in 6E media, which includes all 6B/Colon 1A media components plus 50% L-WRN conditioned media (ATCC, cat. CRL-3276), 50 ng/mL recombinant human EGF recombinant protein (hEGF; Thermo Fisher Scientific, cat. PHG0311), 10 ng/mL recombinant human fibroblast growth factor 10 (hGFG-10; PeproTech, cat. 100-26), 1 ng/mL recombinant human fibroblast growth factor 2 (hFGF-2; PeproTech, cat. 100-18B), and 1 µM prostaglandin E2 (PGE2; Tocris, cat. 2296). The 227483-062-R1-J1-PDC line was cultured in Panc media, containing all 6E components except hFGF-2, with the addition of 500 nM SB-431542 (Selleckchem, cat. S1067) and 10 nM gastrin (Tocris, cat. 3006). […]

[1] = second compound 0.0316 µM, first compound 0.00316 µM
[2] = second compound 0.0316 µM, first compound 0.01 µM
[3] = second compound 0.0316 µM, first compound 0.0316 µM
[4] = second compound 0.0316 µM, first compound 0.1 µM
[5] = second compound 0.0316 µM, first compound 0.316 µM
[6] = second compound 0.0316 µM, first compound 1 µM
[7] = second compound 0.1 µM, first compound 0.00316 µM
[8] = second compound 0.1 µM, first compound 0.01 µM
[9] = second compound 0.1 µM, first compound 0.0316 µM
[10] = second compound 0.1 µM, first compound 0.1 µM
[11] = second compound 0.1 µM, first compound 0.316 µM
[12] = second compound 0.1 µM, first compound 1 µM
[13] = second compound 0.316 µM, first compound 0.00316 µM
[14] = second compound 0.316 µM, first compound 0.01 µM
[15] = second compound 0.316 µM, first compound 0.0316 µM
[16] = second compound 0.316 µM, first compound 0.1 µM
[17] = second compound 0.316 µM, first compound 0.316 µM
[18] = second compound 0.316 µM, first compound 1 µM
[19] = second compound 1 µM, first compound 0.00316 µM
[20] = second compound 1 µM, first compound 0.01 µM
[21] = second compound 1 µM, first compound 0.0316 µM
[22] = second compound 1 µM, first compound 0.1 µM
[23] = second compound 1 µM, first compound 0.316 µM
[24] = second compound 1 µM, first compound 1 µM
[25] = second compound 3.16 µM, first compound 0.00316 µM
[26] = second compound 3.16 µM, first compound 0.01 µM
[27] = second compound 3.16 µM, first compound 0.0316 µM
[28] = second compound 3.16 µM, first compound 0.1 µM
[29] = second compound 3.16 µM, first compound 0.316 µM
[30] = second compound 3.16 µM, first compound 1 µM
[31] = second compound 10 µM, first compound 0.00316 µM
[32] = second compound 10 µM, first compound 0.01 µM
[33] = second compound 10 µM, first compound 0.0316 µM
[34] = second compound 10 µM, first compound 0.1 µM
[35] = second compound 10 µM, first compound 0.316 µM
[36] = second compound 10 µM, first compound 1 µM
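Further: compound exposure lasted seven days before the viability readout.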
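Wherever viability, T/C is given: 100% = DMSO vehicle control wells.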

CCN1CCN(Cc2ccc(Nc3ncc(F)c(-c4cc(F)c5nc(C)n(C(C)C)c5c4)n3)nc2)CC1 + CN1CCN(c2cc(C(=O)Nc3cc4cc(-c5cnn(C)c5)ccc4cn3)ccn2)CC1
pIC50 (second compound 0.0316 µM): < 6.00
pIC50 (second compound 0.1 µM): < 6.00
pIC50 (second compound 0.316 µM): > 8.50
pIC50 (second compound 1 µM): > 8.50
pIC50 (second compound 3.16 µM): > 8.50
pIC50 (second compound 10 µM): > 8.50
viability, T/C [1]: 90.3%
viability, T/C [2]: 85.3%
viability, T/C [3]: 82.2%
viability, T/C [4]: 98%
viability, T/C [5]: 86%
viability, T/C [6]: 79.6%
viability, T/C [7]: 101%
viability, T/C [8]: 76.5%
viability, T/C [9]: 76.9%
viability, T/C [10]: 80.7%
viability, T/C [11]: 78.1%
viability, T/C [12]: 72%
viability, T/C [13]: 32.4%
viability, T/C [14]: 26%
viability, T/C [15]: 30.9%
viability, T/C [16]: 30.3%
viability, T/C [17]: 39.7%
viability, T/C [18]: 32.5%
viability, T/C [19]: 0.18%
viability, T/C [20]: 0.18%
viability, T/C [21]: 1.15%
viability, T/C [22]: 0.3%
viability, T/C [23]: 0.96%
viability, T/C [24]: 2.04%
viability, T/C [25]: 0.11%
viability, T/C [26]: 0.15%
viability, T/C [27]: 0.25%
viability, T/C [28]: 0.83%
viability, T/C [29]: 0.11%
viability, T/C [30]: 0.44%
viability, T/C [31]: 1.88%
viability, T/C [32]: 1.3%
viability, T/C [33]: 0.17%
viability, T/C [34]: 1.36%
viability, T/C [35]: 0.15%
viability, T/C [36]: 0.16%

COc1c(OCCCN2CCOCC2)ccc2c3n(c(=NC(=O)c4cnc(N)nc4)nc12)CCN3 + CN1CCN(c2cc(C(=O)Nc3cc4cc(-c5cnn(C)c5)ccc4cn3)ccn2)CC1
pIC50 (second compound 0.0316 µM): 7.15
pIC50 (second compound 0.1 µM): 7.30
pIC50 (second compound 0.316 µM): > 8.50
pIC50 (second compound 1 µM): > 8.50
pIC50 (second compound 3.16 µM): > 8.50
pIC50 (second compound 10 µM): > 8.50
viability, T/C [1]: 94.2%
viability, T/C [2]: 92.8%
viability, T/C [3]: 87.6%
viability, T/C [4]: 33.5%
viability, T/C [5]: 10.9%
viability, T/C [6]: 2.85%
viability, T/C [7]: 89.6%
viability, T/C [8]: 74.7%
viability, T/C [9]: 65.4%
viability, T/C [10]: 31.4%
viability, T/C [11]: 6.86%
viability, T/C [12]: 2.02%
viability, T/C [13]: 21%
viability, T/C [14]: 23.7%
viability, T/C [15]: 18.5%
viability, T/C [16]: 6.99%
viability, T/C [17]: 3.33%
viability, T/C [18]: 1.61%
viability, T/C [19]: 0.15%
viability, T/C [20]: 0.35%
viability, T/C [21]: 0.15%
viability, T/C [22]: 0.11%
viability, T/C [23]: 0.09%
viability, T/C [24]: 0.08%
viability, T/C [25]: 0.07%
viability, T/C [26]: 0.45%
viability, T/C [27]: 0.29%
viability, T/C [28]: 0.11%
viability, T/C [29]: 0.11%
viability, T/C [30]: 0.1%
viability, T/C [31]: 0.16%
viability, T/C [32]: 0.13%
viability, T/C [33]: 0.92%
viability, T/C [34]: 0.79%
viability, T/C [35]: 0.79%
viability, T/C [36]: 0.15%
